Assay results reported in ChEMBL document CHEMBL1158884, “PSII inhibitory activity of resorcinolic lipids from Sorghum bicolor” (J Nat Prod, 2003).
The source made the active and inactive calls. The calls are words filed in the database; no cut-off is given here.

Experiments:
Lactuca sativa [1] = assay: Phytotoxicity against Lactuca sativa assessed as inhibition of seedlings germination at 3.33 mM after 4 days; assay type: functional, organism-based
Lactuca sativa [2] = assay: Phytotoxicity against Lactuca sativa assessed as inhibition of seedlings germination at 1.0 mM after 4 days; assay type: functional, organism-based
[3] = Inhibition of Photosystem 2 in spinach thylakoid membrane assessed as inhibition of photosynthetic oxygen evolution; assay type: cell membranes, Spinacia oleracea

Structure (SMILES) | Activity (Lactuca sativa [1]) | Activity (Lactuca sativa [2]) | IC50 [3]
C=CC/C=C\C/C=C\CCCCCCCc1c(O)c(OC)cc(OC)c1O | Active | Active | 90 nM
CN(C)C(=O)Nc1ccc(Cl)c(Cl)c1 [DCMU] |  |  | 230 nM
C=CC/C=C\C/C=C\CCCCCCCc1c(O)c(OC)cc(OCC)c1O [E565] |  |  | 200 nM
C=CC/C=C\C/C=C\CCCCCCCC1=C(O)C(=O)C=C(OC)C1=O [SORGOLEONE] | Active |  | 90 nM
